In patent US20220040109A1, “KIDNEY-TARGETING DRUG DELIVERY CARRIER” (KYOTO PHARMACEUTICAL UNIVERSITY, priority 2017, published 2022):

Test: Toxicity in mouse (plasma creatinine, BUN, kidney histology)
Assay type: in vivo, ddY mice
Settings: compound 1a 1 mg/kg intravenous once per day for 5 days
Experimental: Six days after the first intravenous injection, under isoflurane anesthesia, the blood was collected from the vena cava to sacrifice the mice. Plasma creatinine and urea nitrogen (BUN) levels were respectively measured using a creatinine measurement kit (LabAssay, Wako) and a BUN measurement kit (DIUR-100, BioAssay System). Thereafter, kidneys were excised, fixed with 4% paraformaldehyde, and embedded in paraffin blocks. Then, 5-μm-thick sections were prepared. The kidney sections were stained with hematoxylin and eosin, and renal injury was evaluated using a light microscopy (Biozero, KEYENCE). In addition, when HgCl2 was administered as a positive control, plasma creatinine, BUN level and kidney sections were also evaluated by the above-mentioned methods.

SMILES: [Cl][Hg][Cl] [HgCl2]
- histological sections of renal tissues (hematoxylin and eosin) (HgCl2 positive control, FIG. 10C): infiltration and necrosis of inflammatory cells and damaged cells were observed
- plasma concentration of creatinine (HgCl2 subcutaneous positive control, FIG. 10A): significantly increased
- plasma concentration of BUN (HgCl2 subcutaneous positive control, FIG. 10B): significantly increased
